Drawing on patent US20230139171A1 (SITA Information Networking Computing UK Limited, priority 2019, published 2023), this text covers IC50 for eleven molecules.

What all share (format): cell-based
The target in one test is T1, human TLR7 (Homo sapiens, UniProt Q9NYK1).
T1 construct: host or cells: HEK-Blue cells
T1 sequence (Q9NYK1 27-1049): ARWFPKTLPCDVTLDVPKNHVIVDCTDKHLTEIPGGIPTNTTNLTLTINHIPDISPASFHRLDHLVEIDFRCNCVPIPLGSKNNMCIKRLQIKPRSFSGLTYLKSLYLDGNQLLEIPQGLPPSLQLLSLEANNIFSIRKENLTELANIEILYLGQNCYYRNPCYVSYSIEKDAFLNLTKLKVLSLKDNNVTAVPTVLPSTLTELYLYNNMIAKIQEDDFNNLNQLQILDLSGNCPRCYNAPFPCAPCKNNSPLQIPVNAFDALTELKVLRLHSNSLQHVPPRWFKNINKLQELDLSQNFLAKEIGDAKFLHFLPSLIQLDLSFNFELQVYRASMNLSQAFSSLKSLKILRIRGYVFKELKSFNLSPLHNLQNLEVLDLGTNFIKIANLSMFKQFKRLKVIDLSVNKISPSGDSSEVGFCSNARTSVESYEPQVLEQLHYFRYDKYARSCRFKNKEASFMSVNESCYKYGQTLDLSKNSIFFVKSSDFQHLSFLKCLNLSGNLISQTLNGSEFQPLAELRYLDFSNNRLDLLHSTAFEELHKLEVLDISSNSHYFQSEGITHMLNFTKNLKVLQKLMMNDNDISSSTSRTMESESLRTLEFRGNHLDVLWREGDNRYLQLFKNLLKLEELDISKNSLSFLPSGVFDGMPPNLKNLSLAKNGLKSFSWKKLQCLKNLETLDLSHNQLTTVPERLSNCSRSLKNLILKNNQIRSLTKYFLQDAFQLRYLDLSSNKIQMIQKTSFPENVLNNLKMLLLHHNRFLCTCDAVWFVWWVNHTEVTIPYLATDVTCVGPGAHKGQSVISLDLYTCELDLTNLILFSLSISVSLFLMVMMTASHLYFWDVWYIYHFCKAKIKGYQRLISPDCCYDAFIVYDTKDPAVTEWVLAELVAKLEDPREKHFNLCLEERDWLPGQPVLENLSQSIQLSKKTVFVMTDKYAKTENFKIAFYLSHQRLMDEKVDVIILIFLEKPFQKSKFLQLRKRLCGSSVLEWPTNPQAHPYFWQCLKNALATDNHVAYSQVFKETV
The test can be described thus: TLR7 inhibition reporter assay (HEK-Blue cells, SEAP reporter, gardiquimod stimulation). Particulars: HEK-Blue cells overexpressing human TLR7, SEAP reporter, gardiquimod 7.5 μM; read-out: TLR7 IC50. In short, it runs like this:
(§1)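 Agonists used: gardiquimod 7.5 μM (TLR7), R848 15.9 μM (TLR8), ODN2006 5 nM (TLR9), added after 30 min room-temperature compound pre-treatment (0.05 nM–50 μM) of receptor-overexpressing HEK-Blue cells. SEAP reporter (NF-κB/AP-1 driven) read after 22 h at 37 °C; inhibition scaled between agonist+DMSO and reference-inhibitor wells.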
For orientation: A reporter such as luciferase makes a cellular process visible.

The next test has as its target T2, human TLR8 (Homo sapiens, UniProt Q9NR97).
T2 construct: host or cells: HEK-Blue cells
T2 sequence (Q9NR97 27-1041): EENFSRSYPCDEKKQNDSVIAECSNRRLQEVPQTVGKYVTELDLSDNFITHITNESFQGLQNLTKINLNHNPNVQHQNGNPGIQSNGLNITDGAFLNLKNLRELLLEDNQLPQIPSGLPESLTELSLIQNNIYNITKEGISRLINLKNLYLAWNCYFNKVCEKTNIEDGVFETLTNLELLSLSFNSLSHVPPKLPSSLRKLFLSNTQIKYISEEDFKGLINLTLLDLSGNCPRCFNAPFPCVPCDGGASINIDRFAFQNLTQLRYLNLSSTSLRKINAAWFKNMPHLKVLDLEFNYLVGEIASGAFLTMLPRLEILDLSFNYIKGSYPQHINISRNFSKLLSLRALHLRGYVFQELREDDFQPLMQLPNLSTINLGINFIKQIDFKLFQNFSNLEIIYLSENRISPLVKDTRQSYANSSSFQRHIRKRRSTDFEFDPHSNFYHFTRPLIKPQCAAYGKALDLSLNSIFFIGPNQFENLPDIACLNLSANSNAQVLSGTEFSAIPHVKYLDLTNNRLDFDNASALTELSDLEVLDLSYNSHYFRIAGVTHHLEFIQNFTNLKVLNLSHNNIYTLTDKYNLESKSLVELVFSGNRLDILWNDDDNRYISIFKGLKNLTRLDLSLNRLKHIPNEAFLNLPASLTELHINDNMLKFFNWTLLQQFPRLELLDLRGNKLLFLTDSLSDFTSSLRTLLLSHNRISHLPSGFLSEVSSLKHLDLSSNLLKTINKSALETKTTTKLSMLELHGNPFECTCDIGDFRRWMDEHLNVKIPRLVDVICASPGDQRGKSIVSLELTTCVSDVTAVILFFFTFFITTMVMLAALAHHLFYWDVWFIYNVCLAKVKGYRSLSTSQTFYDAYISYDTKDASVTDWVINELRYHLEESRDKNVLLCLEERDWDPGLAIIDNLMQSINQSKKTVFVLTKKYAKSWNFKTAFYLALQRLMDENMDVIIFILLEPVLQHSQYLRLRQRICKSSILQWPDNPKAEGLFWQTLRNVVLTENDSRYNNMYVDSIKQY
The test can be described thus: TLR8 inhibition reporter assay (HEK-Blue cells, SEAP reporter, R848 stimulation). Particulars: HEK-Blue cells overexpressing human TLR8, SEAP reporter, R848 15.9 μM; read-out: TLR8 IC50. In short, it runs like this: as §1

The target in another test is T3, human TLR9 (Homo sapiens, UniProt Q9NR96).
T3 construct: host or cells: HEK-Blue cells
T3 sequence (Q9NR96 26-1032): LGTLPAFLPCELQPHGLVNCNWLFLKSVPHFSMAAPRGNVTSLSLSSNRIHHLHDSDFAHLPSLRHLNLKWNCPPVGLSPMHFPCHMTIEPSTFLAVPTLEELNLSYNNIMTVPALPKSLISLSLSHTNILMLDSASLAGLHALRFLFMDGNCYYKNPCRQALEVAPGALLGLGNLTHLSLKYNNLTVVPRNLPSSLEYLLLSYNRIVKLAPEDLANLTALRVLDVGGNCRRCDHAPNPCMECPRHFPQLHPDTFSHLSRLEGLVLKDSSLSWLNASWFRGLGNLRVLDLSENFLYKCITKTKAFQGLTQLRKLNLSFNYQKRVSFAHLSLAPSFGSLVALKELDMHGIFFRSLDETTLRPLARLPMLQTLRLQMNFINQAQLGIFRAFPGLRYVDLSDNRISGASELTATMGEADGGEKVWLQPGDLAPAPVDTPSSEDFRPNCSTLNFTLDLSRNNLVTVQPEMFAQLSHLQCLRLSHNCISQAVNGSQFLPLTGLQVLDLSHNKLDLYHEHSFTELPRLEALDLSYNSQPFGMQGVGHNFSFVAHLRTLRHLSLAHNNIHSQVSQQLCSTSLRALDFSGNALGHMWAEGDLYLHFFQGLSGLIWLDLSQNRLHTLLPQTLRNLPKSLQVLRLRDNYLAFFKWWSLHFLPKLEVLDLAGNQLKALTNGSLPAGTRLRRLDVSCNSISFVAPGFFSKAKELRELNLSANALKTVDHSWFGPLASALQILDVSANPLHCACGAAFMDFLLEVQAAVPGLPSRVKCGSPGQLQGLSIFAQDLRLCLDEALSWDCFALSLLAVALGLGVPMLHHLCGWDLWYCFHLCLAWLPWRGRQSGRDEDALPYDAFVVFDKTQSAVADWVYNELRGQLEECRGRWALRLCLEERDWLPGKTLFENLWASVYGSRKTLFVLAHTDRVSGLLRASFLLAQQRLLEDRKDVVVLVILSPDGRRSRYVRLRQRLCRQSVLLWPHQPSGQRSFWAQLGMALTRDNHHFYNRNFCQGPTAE
The test can be described thus: TLR9 inhibition reporter assay (HEK-Blue cells, SEAP reporter, ODN2006 stimulation). Particulars: HEK-Blue cells overexpressing human TLR9, SEAP reporter, ODN2006 5 nM. In short, it runs like this:
as §1

The structures appear in SMILES notation.

`Cc1c(-c2[nH]c3sc(C4CCNCC4)nc3c2C(C)C)cn(C)c(=O)c1C` [Example 42, 5-(6-isopropyl-2-(piperidin-4-yl)-4H-pyrrolo[3,2-d]thiazol-5-yl)-1,3,4-trimethylpyridin-2(1H)-one]: the IC50 at human TLR7 was 2.99 nM; at human TLR8, 6.77 nM; against human TLR9, 19000 nM.

For `Cc1c(-c2[nH]c3sc(C4CCC(NC5CCOCC5)CC4)nc3c2C(C)C)cn(C)c(=O)c1C` (single isomer, unassigned) [Example 249, 5-(6-isopropyl-2-(4-((tetrahydro-2H-pyran-4-yl)amino)cyclohexyl)-4H-pyrrolo[3,2-d]thiazol-5-yl)-1,3,4-trimethylpyridin-2(1H)-one], the figures for the IC50 at human TLR7, on human TLR8 and on human TLR9 were 6.34 nM, 1.19 nM and 19800 nM, respectively.

Take `Cc1c(-c2[nH]c3sc(C4CCC(NC5COC5)CC4)nc3c2C(C)C)cn(C)c(=O)c1C` (single isomer, unassigned) [Example 241, 5-(6-isopropyl-2-(4-(oxetan-3-ylamino)cyclohexyl)-4H-pyrrolo[3,2-d]thiazol-5-yl)-1,3,4-trimethylpyridin-2(1H)-one]: the IC50 is 8.06 nM on human TLR7, 3.19 nM on human TLR8 and > 50000 nM at human TLR9.

For `Cc1c(-c2[nH]c3sc(N4CCNCC4)nc3c2C(C)C)cn2ncnc2c1C` [Example 278, 5-(7,8-dimethyl-[1,2,4]triazolo[1,5-a]pyridin-6-yl)-6-isopropyl-2-(piperazin-1-yl)-4H-pyrrolo[3,2-d]thiazole], the IC50 on human TLR7 was determined as 1.43 nM; at human TLR8, 0.33 nM; against human TLR9 it was 10800 nM.

In the case of `Cc1c(-c2[nH]c3sc(C4CCC(N5CC(F)C5)CC4)nc3c2C(C)C)cn(C)c(=O)c1C` (single isomer, unassigned) [Example 265, 5-(2-(4-(3-fluoroazetidin-1-yl)cyclohexyl)-6-isopropyl-4H-pyrrolo[3,2-d]thiazol-5-yl)-1,3,4-trimethylpyridin-2(1H)-one], the IC50 on human TLR7 amounted to 14 nM; at human TLR8 it was 3.29 nM; against human TLR9, 47700 nM.

`Cc1c(-c2[nH]c3sc(N4CCC(NCC(C)(C)O)CC4)nc3c2C(C)C)cn2ncnc2c1C` [Example 291, 1-((1-(5-(7,8-dimethyl-[1,2,4]triazolo[1,5-a]pyridin-6-yl)-6-isopropyl-4H-pyrrolo[3,2-d]thiazol-2-yl)piperidin-4-yl)amino)-2-methylpropan-2-ol]: the IC50 at human TLR7 worked out at 7.65 nM; at human TLR8, 0.39 nM; at human TLR9, 16800 nM.

Regarding `COc1cc(-c2[nH]c3sc(C4CCN(CC(C)(C)C)CC4)nc3c2C(C)C)cn2ncnc12` [Example 13, 6-isopropyl-5-(8-methoxy-[1,2,4]triazolo[1,5-a]pyridin-6-yl)-2-(1-neopentylpiperidin-4-yl)-4H-pyrrolo[3,2-d]thiazole], the IC50 at human TLR7 came out at 5.04 nM; on human TLR8, 2.03 nM; against human TLR9, 3330 nM.

Regarding `Cc1c(-c2[nH]c3sc(N4CCC(NCC5(C)COC5)CC4)nc3c2C(C)C)cn2ncnc2c1C` [Example 295, 1-(5-(7,8-dimethyl-[1,2,4]triazolo[1,5-a]pyridin-6-yl)-6-isopropyl-4H-pyrrolo[3,2-d]thiazol-2-yl)-N-((3-methyloxetan-3-yl)methyl) piperidin-4-amine], the IC50 is 4.94 nM at human TLR7, 0.28 nM at human TLR8 and 9710 nM at human TLR9.

As to `Cc1cc(-c2[nH]c3sc(C4CCC(NC5COC5)CC4)nc3c2C(C)C)cn2ncnc12` (single isomer, unassigned) [Example 130, N-(4-(6-isopropyl-5-(8-methyl-[1,2,4]triazolo[1,5-a]pyridin-6-yl)-4H-pyrrolo[3,2-d]thiazol-2-yl)cyclohexyl)oxetan-3-amine], the IC50 at human TLR7 turned out to be 0.45 nM; at human TLR8 it was 2.42 nM; against human TLR9, 11500 nM.

`Cc1c(-c2[nH]c3sc(C4CCC(N5CCNC(=O)C5)CC4)nc3c2C(C)C)cn2ncnc2c1C` (single isomer, unassigned) [Example 220, 4-(4-(5-(7,8-dimethyl-[1,2,4]triazolo[1,5-a]pyridin-6-yl)-6-isopropyl-4H-pyrrolo[3,2-d]thiazol-2-yl)cyclohexyl) piperazin-2-one]: the IC50 at human TLR7 was 1.4 nM; at human TLR8, 4.38 nM; on human TLR9, > 50000 nM.

For `CC(C)c1c(-c2cn(C)c3ncccc23)[nH]c2sc(C3CCC(N4CC5(COC5)C4)CC3)nc12` (single isomer, unassigned) [Example 180, 6-(4-(6-isopropyl-5-(1-methyl-1H-pyrrolo[2,3-b]pyridin-3-yl)-4H-pyrrolo[3,2-d]thiazol-2-yl)cyclohexyl)-2-oxa-6-azaspiro[3.3]heptane], the IC50 is 3.54 nM on human TLR7, 3.7 nM at human TLR8 and 5280 nM against human TLR9.

The IC50 is the concentration at which inhibition is half-maximal.
